For series [1], the system named is H1975. Briefly: Non Small Cell Lung Cancer proliferation assay (Alamar Blue reduction), H1975. The series is classed as cell-based, human. The following applies: Homo sapiens. The method, boiled down: (§1)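 Viability after 48 hours of drug exposure at 37° C is scored by Alamar Blue reduction over a subsequent 48 hours, read at 530/590 nm. DMSO-only wells (1% final) define the high control.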
On the technique in general: Resazurin is reduced to fluorescent resorufin, in cell work by metabolically active cells.

In series [2] the test system is H3255. Nature of the series: Non Small Cell Lung Cancer proliferation assay (Alamar Blue reduction), H3255. The series is classed as cell-based, human. The following applies: Homo sapiens. The method, boiled down:
as §1

Series [3] relates to H358. Briefly: Non Small Cell Lung Cancer proliferation assay (Alamar Blue reduction), H358. The series is classed as cell-based. The following applies: Homo sapiens, NCI-H358. The method, boiled down:
as §1

Series [4] is described as follows: in vitro. The following applies: human.
Series [5] relates to HPL1D (human peripheral lung epithelial) cell line. Briefly: Cell proliferation / dose response (Alamar Blue), HPL1D. The series is classed as cell-based. The following applies: HPL1D, 12 point doubling dilution 10 uM to 5 nM, 48 h treatment, alamar blue additional 48 h, read-out: IC50 HPL1D. The method, boiled down: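 Dose–response proliferation was run in HPL1D human peripheral lung epithelial cells. Compound treatment lasted 48 h at 37 C, followed by alamar blue for a further 48 h. Alamar blue reduction was the read-out.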

Series [6] deals with PC9. Nature of the series: Dose response study (Alamar Blue), PC9. The following applies: Homo sapiens, PC-9; PC9; 12 point doubling dilution 10 uM to 5 nM; 48 h treatment, alamar blue additional 48 h; read-out: IC50 PC9. The series is classed as cell-based.
In series [7] the test system is H23. Nature of the series: Dose response study (Alamar Blue), H23. The series is classed as cell-based. The following applies: Homo sapiens, NCI-H23; H23; 12 point doubling dilution 10 uM to 5 nM; 48 h treatment, alamar blue additional 48 h; read-out: IC50 H23.
The subject of series [8] is H460. Nature of the series: Dose response study (Alamar Blue), H460. The series is classed as cell-based. The following applies: Homo sapiens, NCI-H460; H460; 12 point doubling dilution 10 uM to 5 nM; 48 h treatment, alamar blue additional 48 h; read-out: IC50 H460.
The subject of series [9] is H2122. Briefly: Dose response study (Alamar Blue), H2122. The series is classed as cell-based. The following applies: Homo sapiens, NCI-H2122; H2122; 12 point doubling dilution 10 uM to 5 nM; 48 h treatment, alamar blue additional 48 h; read-out: IC50 H2122.

Each structure is given as a SMILES string. Like-named read-outs stand apart in the source and are kept apart here.

As to `Cc1nc2cc(-n3ncc(Cl)c(Cl)c3=O)ccc2s1` [compound 267067], the IC50 in series [1] (NCI-H1975, 48 h, H1975, 12 point doubling dilution 10 uM to 5 nM, 48 h treatment, alamar blue additional 48 h, read-out: IC50 H1975) is greater than 10 µM; in series [1] (NCI-H1975, dose response 10 M to 5 nM, IC50, read-out: Dose Response (uM) H1975), 0.45 µM; in series [2] (NCI-H3255, 48 h, H3255, 12 point doubling dilution 10 uM to 5 nM, 48 h treatment, alamar blue additional 48 h, read-out: IC50 H3255), greater than 10 µM; in [2] (NCI-H3255, dose response 10 M to 5 nM, IC50, read-out: Dose Response (uM) H3255) it was 3.64 µM; in series [3] (H358, 12 point doubling dilution 10 uM to 5 nM, 48 h treatment, alamar blue additional 48 h, read-out: IC50 H358), greater than 10 µM; in [3] (read-out: Dose Response (uM) H358) it was 1.38 µM. Moreover, the IC50 in [5] is 7.01 µM; in series [6] it was greater than 10 µM; in series [7], 5.68 µM; in series [8] it was greater than 10 µM; in series [9] it was greater than 10 µM. Also, the IC50 at 72 h in series [4] (CytoTox (uM) NHBE) and in series [4] (CytoTox (uM) WI-38) was greater than 10 µM each time.

These data come from patent US20100210649A1, “PYRIDAZINONES AND FURAN-CONTAINING COMPOUNDS” (Sloan-Kettering Institute for Cancer Research, priority 2006, published 2010).
